Each structure is given as a SMILES string. Where only a bound is given, the exact number is not on record here.

The first data set addresses T1, HIV-1 reverse transcriptase (Human immunodeficiency virus type 1 group M subtype B, UniProt P04585).
T1 construct: fixed-time assay for HIV-1 reverse transcriptase RNA dependent DNA polymerase activity; RT was purchased from Calbiochem; purchased Calbiochem CAL382129-500
Description: HIV-1 in vitro reverse transcriptase activity (fixed-time RNA dependent DNA polymerase assay). As to conditions: residual RT activity, compound at 10 μM; RT activity without compound set at 100%. The data set is classed as biochemical. As to the method: For the in vitro inhibition studies of the HIV-1 reverse transcriptase activity, stock solutions of the compounds of the present invention were prepared in dimethyl sulfoxide at a final concentration of 10 mM and kept at room temperature. Nevirapine was purchased from Boehringer Ingelheim. Efavirenz was received from the NIH AIDS Research and Reference Reagent Program.
In vitro inhibition studies used a fixed-time assay for HIV-1 reverse transcriptase RNA dependent DNA polymerase activity. RT was purchased from Calbiochem (ref CAL382129-500). One unit of RT corresponds to the amount of enzyme which incorporates one nanomole of [^3H]TTP in 10 minutes at 37° C.
Assays were performed in a final volume of 50 μl. […] Reaction mixtures were incubated at 37° C. for 10 min. The incorporation rate was determined by a standard trichloroacetic acid precipitation procedure (adapted from Current protocols in molecular biology. Eds Wiley, MGH Harvard medical school) and liquid scintillation counting using a Wallac scintillation counter.
The in vitro activity of the compounds, at a final concentration of 10 μM, on the reverse transcriptase (RT) activity of HIV-1 is derivable from the relative (%) reduction in RT activity. Hereby, the RT activity in the absence of any of the compounds is set at 100%.
For the compound `CCc1c(C)[nH]c(=O)c(CN=[N+]=[N-])c1OC1CC(C)CC(C)C1` (stereo not shown) [Z153], the “Relative (%) RT activity in vitro (compound added at 10 μM)” value (“Relative (%) RT activity in vitro” for short) was found to be 0.7%.

`Cc1ccnc2c1NC(=O)c1cccnc1N2C1CC1` [Nevirapine, reference compound]: the “Relative (%) RT activity in vitro” value is recorded as 16.7%.

For the compound `CCOC(=O)c1c(OC2CC(C)CC(C)C2)c(CC)c(C)[nH]c1=O` (single isomer, unassigned) [Z37inv], the “Relative (%) RT activity in vitro” value came out at 5.5%.

As for `CCc1c(C)[nH]c(=O)c(CO)c1OC1CC(C)CC(C)C1` (stereo not shown) [Z45inv], the “Relative (%) RT activity in vitro” value was 12.1%.

On to `CCc1c(C)[nH]c(=O)c([N+](=O)[O-])c1OC1CC(C)CC(C)C1` (stereo not shown) [Z91inv, 3-nitro-5-ethyl-6-methyl-4-[(3,5-dimethylcyclohexyl)oxy]pyridine-2(1H)-one], for which the “Relative (%) RT activity in vitro” value came to 0%.

In the case of `CCc1c(C)[nH]c(=O)c(C)c1OC1CC(C)CC(C)C1` (stereo not shown) [Z154], the “Relative (%) RT activity in vitro” value amounted to 1.6%.

Take `CCc1c(C)[nH]c(=O)c(CSC(C)=O)c1OC1CC(C)CC(C)C1` (stereo not shown) [Z114]: the “Relative (%) RT activity in vitro” value worked out at 0%.

For `CCc1c(C)[nH]c(=O)c(N(C)C)c1OC1CC(C)CC(C)C1` (stereo not shown) [Z150, 3-(dimethylamino)-5-ethyl-6-methyl-4-[(3,5-dimethylcyclohexyl)oxy]pyridine-2(1H)-one], the “Relative (%) RT activity in vitro” value was found to be 0.9%.

Test system in the next data set: not listed separately
Description: Cytotoxicity (CC50), MTT assay on P4 cells. Type of data set: cell-based. As to conditions: human. As to the method: (§1) For the antiviral and the cytotoxicity assays, the drugs were diluted in complete DMEM medium. In these experiments, drugs were diluted in triplicate wells in a 96-well plate in six, 5 fold serial dilutions.
(§2) The 50% cytotoxic concentration (CCso) was determined using a protocol adapted from Pauwels et al. (1988. J. Virol. Methods 20(4):309-21). Briefly, flat bottom 96-well plates were filled with 50 μl of complete medium containing 5.10^3 P4 cells. 2 hours later 50 μl of drug solution were added to the cells. Drugs (dissolved in DMEM, see above) were diluted in six, 5-fold serial dilutions from stock solutions in triplicate wells of a 96-well plate. Cells and compounds were incubated at 37° C. in growth medium for 3 days. Cell viability was determined by MTT assays using the Roche Cell Proliferation KIT. The absorbance (λ=570 nm) was measured on a Benchmark™ Microplate Reader (Biorad) and compared with 12 cell control replicates (no drug added). Each assay was performed at least three times for a total of at least nine replicate wells. This method detects both cytostatic and cytolytic effects of drugs.
With `Cc1ccnc2c1NC(=O)c1cccnc1N2C1CC1` [Nevirapine, reference compound], the CC50 at 3 days was greater than 100 µM.

In turn, `CCc1c(C)[nH]c(=O)c([N+](=O)[O-])c1OC1CC(C)CC(C)C1` (stereo not shown) [Z91inv, 3-nitro-5-ethyl-6-methyl-4-[(3,5-dimethylcyclohexyl)oxy]pyridine-2(1H)-one] returned a CC50 at 3 days of 37.2 µM.

Turning to `O=C1Nc2ccc(Cl)cc2[C@@](C#CC2CC2)(C(F)(F)F)O1` [Efavirenz, reference compound], it took 40 µM to reach half-maximal cytotoxicity (CC50 at 3 days).

For the compound `CCc1c(C)[nH]c(=O)c(N(C)C)c1OC1CC(C)CC(C)C1` (stereo not shown) [Z150, 3-(dimethylamino)-5-ethyl-6-methyl-4-[(3,5-dimethylcyclohexyl)oxy]pyridine-2(1H)-one], the CC50 at 3 days was 66 µM.

A further data set deals with P4 cells. In words: Cytotoxicity (CC50), MTT assay on P4 cells. As to conditions: 3 days. The data set is classed as cell-based. As to the method:
as §1, §2
`CCc1c(C)[nH]c(=O)c(CN=[N+]=[N-])c1OC1CC(C)CC(C)C1` (stereo not shown) [Z153] returned a CC50 of 54 µM.

Take `CCOC(=O)c1c(OC2CC(C)CC(C)C2)c(CC)c(C)[nH]c1=O` (single isomer, unassigned) [Z37inv]: the cytotoxic concentration (CC50) was 64 µM.

The compound `CCc1c(C)[nH]c(=O)c(CO)c1OC1CC(C)CC(C)C1` (stereo not shown) [Z45inv] came in with a CC50 of 76 µM.

Consider `CCc1c(C)[nH]c(=O)c(C)c1OC1CC(C)CC(C)C1` (stereo not shown) [Z154], for which the CC50 worked out at 80 µM.

Regarding `CCc1c(C)[nH]c(=O)c(CSC(C)=O)c1OC1CC(C)CC(C)C1` (stereo not shown) [Z114], half-maximal cytotoxicity (CC50) was put at 8 µM.

A further data set deals with HIV-1 mutant Cys188RT in TZM-bl cells. In words: Anti-HIV assay on TZM-bl cells, Cys188RT mutant. The data set is classed as cell-based. The following applies: Human immunodeficiency virus 1, TZM-bl, read-out: EC50 Cys188RT TZM-bl. The text has this:
(§3) In order to introduce mutation(s) at the level of the pol gene coding for the RT in the pNL4-3 plasmid containing the complete viral genome (Adachi et al., 1986. J. Virol., Vol. 59 p 284-291) we used the “Quick change mutagenesis kit” (Stratagene). The following mutations were separately introduced in pNL4-3: L100I, K103N, V108I, Y181C, Y188C, and the double mutations K103N/V108I. These mutations were chosen because of the resistance that they confer to existing NNRTI. The production procedure of the mutant viral stocks is identical to the one described above.
Anti-HIV activity and cytotoxicity of the compounds were tested on the TZM-b1 cell line. The TZM-b1 cell line (Wei et al. 2002. Antimicrob. Agents Chemother. Vol. 46, p 1896-1905) was received from the NIH AIDS Research and Reference Reagent Program. These cells were cultured in complete DMEM medium supplemented with 10% fetal bovine serum (FBS), and 1% Penicillin/Streptomycin. Exponentially growing cells were trypsinized, centrifuged and split twice weekly at 5 10^4 cells/ml.
The anti-HIV assay with TZM-b1 cells is essentially the same as described above with P4 cells. The main difference between the two cell lines is that the TZM-b1 cells express at their surface both the CD4 and CCR5 proteins, acting as receptor and co-receptor for HIV entry, respectively (Wei et al. 2002. Antimicrob. Agents Chemother. Vol. 46, p 1896-1905). This feature makes the cells very sensitive to infection by the virus. The TMZ-b1 cells were infected with equal amount of cell-free virus, corresponding to 10 ng of HIV p24 antigen. This amount is ten times lower than the amount used to infect the P4 cells.
As to `Cc1ccnc2c1NC(=O)c1cccnc1N2C1CC1` [Nevirapine, reference compound], the EC50 came to 2.72 µM.

With `O=C1Nc2ccc(Cl)cc2[C@@](C#CC2CC2)(C(F)(F)F)O1` [Efavirenz, reference compound], the EC50 is less than 0.001 µM.

`CCc1c(C)[nH]c(=O)c(N(C)C)c1OC1CC(C)CC(C)C1` (stereo not shown) [Z150, 3-(dimethylamino)-5-ethyl-6-methyl-4-[(3,5-dimethylcyclohexyl)oxy]pyridine-2(1H)-one]: the EC50 was less than 0.001 µM.

Still in this data set, the particulars now being: TZM-bl, mutant Cys188RT; read-out: EC50 Cys188RT TZM-bl.
For `CCc1c(C)[nH]c(=O)c(CN=[N+]=[N-])c1OC1CC(C)CC(C)C1` (stereo not shown) [Z153], the EC50 is less than 0.001 µM.

On to `CCc1c(C)[nH]c(=O)c(CSC(C)=O)c1OC1CC(C)CC(C)C1` (stereo not shown) [Z114], for which the 50% effective concentration (EC50) was found to be 0.001 µM.

The next data set has as its system HIV-1 mutant Asn103RT in P4 cells. Description: Anti-HIV assay on P4 cells, Asn103RT mutant. Type of data set: cell-based. As to conditions: Human immunodeficiency virus 1, read-out: EC50 Asn103RT P4.
Excerpt: as §3
Anti-HIV activity and cytotoxicity of the compounds were tested on a P4 cell line. The P4 cell line (Clavel & Charneau, 1994. J. Virol., Vol. 68 p 1179-1185) was provided by Dr. François Clavel (Unité de recherche antivirale de l'hôpital Xavier Bichat Paris: Inserm). The P4 cells were cultured in complete DMEM medium supplemented with 10% fetal bovine serum (FBS), 0.5% of Penicillin/Streptomycin and G418 at 0.5 mg/ml. Exponentially growing cells were trypsinized, centrifuged and split twice weekly at 5.10^4 cells/ml.
The P4 cells are HIV-infectible Hela-CD4 cells that carry the bacterial lacZ gene under the control of the HIV-1 long terminal repeat (LTR). In this cell line, transcription of the LacZ gene is driven by the HIV-1 LTR. […]
Briefly, in the anti-HIV assay 100 Ål of P4 cells were plated in 96-well plate at a concentration of 0.4 10^5 cells/ml and incubated at 37° C., 5% CO2. […] After 48 h of incubation at 37° C., 5% CO2, β-galactosidase activity was measured using chlorophenol red-β-D-galactopyranoside assays.
The absorbance was measured on a Benchmark™ Microplate Reader (Biorad) (λ=570 nm) and compared with 12 cell control replicates (no virus or drug added) and 12 virus control wells (no drug added). […] The 50% effective concentration (Ec50) was calculated from each dose response curve using the CurveExpert 1.3 software. […]
For the compound `Cc1ccnc2c1NC(=O)c1cccnc1N2C1CC1` [Nevirapine, reference compound], the concentration for a half-maximal effect (EC50) is 1.71 µM.

Regarding `CCc1c(C)[nH]c(=O)c([N+](=O)[O-])c1OC1CC(C)CC(C)C1` (stereo not shown) [Z91inv, 3-nitro-5-ethyl-6-methyl-4-[(3,5-dimethylcyclohexyl)oxy]pyridine-2(1H)-one], the half-maximal effective concentration (EC50) stood at 0.089 µM.

Still in this data set, the particulars now being: P4, mutant Asn103RT; read-out: EC50 Asn103RT P4.
For the compound `CCc1c(C)[nH]c(=O)c(CSC(C)=O)c1OC1CC(C)CC(C)C1` (stereo not shown) [Z114], the concentration for a half-maximal effect (EC50) amounted to 0.643 µM.

For the origin of these results see US20070275953A1 (priority 2003, published 2007).
